Experimental data: US20260199270A1, “METHODS FOR TREATING NEURODEGENERATIVE DISORDERS WITH TRAMIPROSATE” (Alzheon, Inc., priority 2022, published 2026)
Entries after “also recorded” stand apart in the source; their conditions may differ.

Tests used:
Type in all cases: in vivo, human
[1] = system: plasma Aβ40; assay: Phase 2 trial of ALZ-801 in early Alzheimer's disease: plasma Aβ40; conditions: 52 weeks; 265 mg ALZ-801 orally twice daily; APOE4+ early AD subjects
Description: FIG. 1 illustrates the effect on plasma Abeta40 (change from baseline) following a 52 week treatment with 265 mg ALZ-801 administered orally twice daily to subjects who are APOE4+ and have early AD.
(§1) Evaluation of disease modifying effects from phase 2 trial of ALZ-801 (valiltramiprosate) in subjects with early Alzheimer's disease were conducted. The study enrolled 84 patients, with early AD, who carry the APOE4/4 or APOE3/4 genotype and have an MMSE score ranging from 22 to 30 (CDR-G 0.5 or 1). Each patient received 265 mg ALZ-801 twice daily. The average MMSE score of the subjects was 26 (mean age 69 years, 52% female). Subjects were either amyloid PET positive or A+/T+ on CSF assays. CSF criteria were: Ratio of Aβ42/40×10<0.61, and p-tau181>61 pg/ml. CSF was evaluated at 52 weeks, and plasma biomarkers at every visit.
(§2) These effects were associated with benefits on a composite cognitive outcome that tests memory and learning. […] The HV preservation effects correlate with cognitive benefits (Spearman's coefficient r=0.27, p=0.02).

[2] = system: plasma Aβ42; assay: Phase 2 trial of ALZ-801 in early Alzheimer's disease: plasma Aβ42; conditions: 52 weeks; 265 mg ALZ-801 orally twice daily; APOE4+ early AD subjects
Description: FIG. 2 illustrates the effect on plasma Abeta42 (change from baseline) following a 52 week treatment with 265 mg ALZ-801 administered orally twice daily to subjects who are APOE4+ and have early AD.
as §1, §2

[3] = system: plasma p-tau181; assay: Phase 2 trial of ALZ-801 in early Alzheimer's disease: plasma p-tau181; conditions: 52 weeks; 265 mg ALZ-801 orally twice daily; APOE4+ early AD subjects
Description: FIG. 3 illustrates the effect on plasma p-tau181 (change from baseline) following a 52 week treatment with 265 mg ALZ-801 administered orally twice daily to subjects who are APOE4+ and have early AD.
as §1, §2

[4] = Phase 2 trial of ALZ-801: HV atrophy vs matched external control group from ADNI-1; conditions: compared to matched external control group from the ADNI-1 observational study; 265 mg twice daily
Description: as §1, §2

[5] = Phase 2 trial of ALZ-801: safety, ARIA and macrohemorrhages; conditions: 1 year of ALZ-801 treatment
Description: This is further supported by the early significant decrease in the neuronal injury marker plasma p-tau, which indicates decreased amyloid-induced neuronal stress. See e.g., FIG. 3.
as §1, with “visit. […]” for “visit.”

Compound: CC(C)[C@H](N)C(=O)NCCCS(=O)(=O)O [ALZ-801, valyl-3-amino-1-propanesulfonic acid]
- reduction of plasma Aβ40 compared to baseline [1]: ~ 5%
- reduction of plasma Aβ42 compared to baseline [2]: ~ 5%
- reduction of plasma p-tau compared to baseline [3]: 41%
- reduction of HV atrophy [4]: 19-23%
- events of vasogenic edema / amyloid-related imaging abnormalities (ARIA-E; b52: ARIA-E or ARIA-H) [5]: no events
- macrohemorrhages (bleeds larger than 1 cm in diameter) [5]: no events; also recorded: no macro-hemorrhages
